Experimental data reported in US20090054403A1, “Treatment of Post-Traumatic Stress Disorder” (priority 2007, published 2009).
“Also recorded” adds a separate entry of the source. One block for each compound: values may come before it.

Key:
[1] = system: blood pressure, heart rate, motor activity; assay: Radio-telemetry blood pressure, heart rate, motor activity in normotensive rats, 7 days; type: in vivo, normotensive Wistar rats (Crl:COBS(WI)BR); details: 10 mg/kg po
Description: Male Crl:COBS(WI)BR rats of 15 weeks old were used. Twenty-four rats were chronically implanted with telemetry implants (TA11PA-C40, Data Sciences, Inc., St. Paul, Minn.) for measurement of arterial blood pressure, heart rate and motor activity. The rat was anesthetized with pentobarbital sodium (60 mg/kg, ip) and its abdomen shaved. Under aseptic conditions, an incision was made on midline. The abdominal aorta was exposed, and cannulated with the catheter of a telemetry transmitter unit. After the transmitter was sutured to the abdominal musculature, the skin was closed. Each rat was allowed to recover for at least 2 weeks before being subjected to drug administration. Three days prior to the start of the experiment, the rats were randomly divided into 4 treatment groups: Vehicle (p.o.), Hydralazine (10 mg/kg, p.o.), nepicastat (30 mg/kg, p.o.), nepicastat (100 mg/kg, p.o.).
Systolic blood pressure (SBP), diastolic blood pressure (DBP), mean blood pressure (MBP), heart rate (HR), and motor activity (MA) were monitored. After the pre-dose values for these parameters were established, respective groups of rats received a 7 day daily treatment of vehicle, nepicastat or hydralazine.
Both nepicastat and hydralazine were prepared in water with traces of Tween 80. All doses were given orally to the rat in 10 ml/kg and were expressed as free base equivalents.
A computerized data collection system was used to continuously collect data on SBP, DBP, MBP, HR, and MA. Data on each rat were collected every 5 min. for 10 sec. These were then averaged hourly and standard errors of the mean (SE) calculated. In this report, only data on MBP, HR and MA were presented. […] Body weights were recorded daily.

[2] = system: parkinsonian symptoms; assay: Parkinsonian clinical rating scale (CRS) in MPTP-lesioned monkeys; type: in vivo, squirrel monkeys (Saimiri sciureus)
Description: A total of 24 squirrel monkeys (Saimiri sciureus), fourteen females and ten males were used in this study. The twenty-four animals were randomly assigned to one of four treatment groups, with 6 animals per group. The groups consisted of the following (1) group A: placebo (2) group B: 1 mg/kg/day; (3) group C: 4 mg/kg/day; and (4) group D: 10 mg/kg/day. In Group B, one animal died acutely following MPTP-lesioning, and was not replaced.
Animals were lesioned by the administration of MPTP at a concentration of 2.0 mg/kg (free-base) via subcutaneous injection to achieve a parkinsonian state (see FIGS. 151-156). A post-MPTP lesioning behavioral assessment was carried out 2 to 4 weeks after the last MPTP-Iesioning. Locomotor activity was monitored by IRAM in 60-minute sessions for 3 to 5 days. Clinical behavior (CAS) was assessed by one to three individuals rating over a period of 3 to 5 days.
Animals were tested for response to L-Dopa and the efficacy of drug nepicastat. Testing was carried out 4 to 12 weeks after the last MPTP dose. Twenty-tour squirrel monkeys were randomly assigned to 4 groups; Group A (6 animals) received placebo (water) treatment; Group B (5 animals) received drug nepicastat at 1 mg/kg/day (0.5 mg/kg twice daily); Group C (6 animals) received 4 mg/kg/day (2 mg/kg twice daily); and Group D (6 animals) received 10 mg/kg/day (5 mg/kg twice daily).
L-Dopa was administered at a concentration of either 2.5, 5, or 7.5 mg/kg by oral gavage twice daily (at 10 am and 2 pm) for 7 consecutive days. Behavior was determined by IRAM and CRS. Clinical rating was carried out 60 to 90 minutes following the 10 am morning dose on the last 4 days of treatment. Raters (one to three individuals) were blinded to the different treatment groups. IRAM assessment were preformed for 90 minutes immediately following drug administration at 2 pm on the last 2 to 5 days of drug treatment. There was a minimum 2 day washout period between each treatment dose.
Drug nepicastat or water (as placebo) was administered for 12 days following a minimum 2 day washout after L-Dopa dosing. Drug was administered twice daily at 10 am and 2 pm by oral gavage. Behavior was rated by IRAM and CRS. The CRS was conducted in the morning, 60 to 90 minutes after the 10 am dose of nepicastat on the last 5 days of drug treatment. Raters (one to three individuals) were blinded to the different treatment groups. IRAM assessments were preformed for 90 minutes immediately following drug administration at 2 pm on the last 5 days of drug treatment.
Eight parkinsonian features were rated in each animal and the total score was derived from the sum of these eight features. […]

[3] = system: serum T3 and T4 levels; assay: Thyroid function (serum T3, T4) in iodine-deficient rats, 10 days; type: in vivo, Sprague-Dawley rats; details: for effect on serum T3 and T4 levels: nepicastat 2.0 and 6.2 mg/kg b.i.d., methimazole 1 mg/kg b.i.d., po, 10 days
Description: Male Sprague-Dawley rats, weighing 180-200 grams, were fed an iodine deficient diet (Purina, 5891C, Lot 1478, 0.066±0.042 mg iodine/kg sample) ad libitum 14 days prior to treatment. Animals were weighed and randomly assigned to one of the following treatment groups (n=12 per group): Nepicastat at 2.0 mg/kg, Nepicastat at 6.2 mg/kg, R, Methimazole at 1 mg/kg, or vehicle at 1 ml/kg. Each group of rats was dosed orally in the evening and the following morning, approximately 12 hours apart, for 10 consecutive days.
Orbital blood samples were taken at day—3, 0, 3, 7, and 9 (day 0 was the first day of dosing). Serum samples were analyzed for T3 and T4 levels using a radioimmunoassay.
To statistically evaluate changes in T3 and T4 levels, a change from baseline was calculated from the day-3 time point. A non-parametric two-way within subject analysis of variance (ANOVA) was conducted. Also a one-way ANOVA was performed to detect if a significant difference from control occurred. Pairwise analyses between controls and each treatment group were carried out using Fisher's LSD strategy to control the experiment-wise error rate. For statistical analysis of catecholamine levels, a one-way ANOVA with factor DOSE was performed. Pairwise analyses between treated and controls at each dose were carried out using Fisher's LSD strategy to control the experiment-wise error rate.

[4] = Plasma levels of nepicastat and N-acetyl metabolite in dogs, 2 mg/kg b.i.d.; type: in vivo, beagle dogs; details: after nepicastat 2 mg/kg bid, any of the days
Description: Male Beagle dogs (Marshall farms, North Rose, N.Y.) weighing between 9-16 kg were used in the study. The animals were allowed water ad libitum and given food once daily at ˜10.00 AM. Animals were randomly assigned to one of the following treatment groups (n=8/group): placebo (empty capsule), or nepicastat at 2 mg/kg b.i.d (4 mg/kg/day). Each animal received 2 doses daily, morning and afternoon (8-10 hours apart). Daily blood samples (10 ml) were drawn 6 h after the AM dose for measurement of plasma levels of nepicastat and catecholamines. The blood was collected in tubes containing heparin and glutathione and centrifuged at −4° C. within 1 h of collection. The plasma was separated and divided into two samples, one for the measurement of plasma catecholamines and the other for analysis of nepicastat.
Plasma NE, DA and EPI were anaylysed by HPLC using electrochemical detection. Plasma concentration of nepicastat was determined by HPLC using electrochemical detection.

[5] = system: mean arterial pressure and heart rate; assay: Heart rate and mean arterial pressure in restrained SHR with SCH-23390 pretreatment; type: in vivo, spontaneous hypertensive rats; details: 200 μg/kg iv, 15 min post-iv period
Excerpt: Male, spontaneous hypertensive rats (280-345 g; Charles River Labs, Kingston, N.Y.) were fasted overnight then anesthetized with ether. A femoral artery and femoral vein were cannulated with PE50 tubing for recording of blood pressure and administration of compounds, respectively. Animals were then placed in MAYO restrainers and their feet loosely taped to the restrainer. Heparinized saline (50 units sodium heparin/ml) was used to maintain patency of each cannula throughout the experiment. The following parameters were continuously recorded using Modular Instruments MI^2 BioReport™ software installed on an IBM personal computer: mean arterial pressure (MAP), heart rate (HR), and the change from baseline for each parameter at specified time points in the experiment.
All compounds were dissolved on the day of use. nepicastat was dissolved in deionized water (vehicle) to a free base concentration of 1 mg/ml. Oral dosing volume for nepicastat or vehicle was 10 ml/kg. SCH-23390 was dissolved in saline (vehicle) to a free base concentration of 0.2 mg/ml. […] or saline were administered intravenously as a bolus in a volume of 1.0 ml/kg followed by 0.2 ml flush of isotonic saline.
Following surgical preparation, each animal was allowed a minimum one hour recovery period. Animals were randomly assigned to four treatment groups: vehicle (iv)/vehicle (po); vehicle (iv)/nepicastat (po); SCH-23390 (iv)/vehicle (po); or SCH-23390 (iv)/nepicastat (po). Once animals were stabilized (minimum one hour), baseline blood pressure and heart rate was determined by taking an average of each parameter over a 15 min period of time. Once baseline blood pressure and heart rate were established, animals were dosed intravenously with either SCH-23390 (200 μg/kg) or vehicle (saline, 1 ml/kg). Fifteen minutes later, animals were orally dosed with either nepicastat (10 mg/kg) or vehicle (deionized water, 10 ml/kg).
Recorded parameters were measured 15 min prior to intravenous dosing to establish baseline blood pressure and heart rate. Recorded parameters were then measured at 5, 10, and 15 min following intravenous administration of SCH-23390 or vehicle. Following oral administration of nepicastat or vehicle, recorded parameters were measured at 15, 30, 60, 90, 120, 150, 180, 210, and 240 min.
At the end of the experiment, each animal was anesthetized with halothane and euthanized via decapitation. The cortex, left ventricle (apex), and mesenteric artery were dissected out, weighed, and fixed in 0.4 M perchloric acid. […] Blood pressure and heart rate were analyzed separately. The change from baseline for blood pressure and heart rate were analyzed by an analysis of variance (ANOVA) with effects for treatment, time, and their interaction. […]

[6] = system: blood pressure; assay: Radio-telemetry blood pressure in SHR, up to 30 days; type: in vivo; details: 1 mg/kg, p.o.

Compound: NNc1nncc2ccccc12 [Hydralazine, reference compound]
time in which hypotensive effect subsided [1]: 10 h | maximal decrease in MBP ([1]; within 1 hr after dosing on day 1): −24 mmHg

Compound: N[C@@H](Cc1ccc(O)c(O)c1)C(=O)O [L-Dopa, reference compound]
CRS / parkinsonian symptoms compared to post-MPTP (pre-treatment) state ([2]; L-Dopa 2.5 mg/kg): No groups of animals demonstrated significant improvement; also recorded: no significant effect | CRS / parkinsonian symptoms compared to post-MPTP (pre-treatment) state ([2]; L-Dopa 5 and 7.5 mg/kg, except Group B at 5 and Group C at 7.5 mg/kg): significant improvement; also recorded: significant effect

reduction in serum levels of T3 ([3]; day 3, 4 h post-dose): 31% | reduction in serum levels of T4 ([3]; day 3, 4 h post-dose): 46% | reduction in serum levels of T3 ([3]; day 7, 4 h post-dose): 42% | reduction in serum levels of T4 ([3]; day 7, 4 h post-dose): 58% | reduction in serum levels of T3 ([3]; day 9, 4 h post-dose): 44% | T4 levels vs vehicle ([3]; day nine): only marginally (p<0.10) lower | effect on serum T3 and T4 levels ([3]; listed as methimazole): significantly reduced
Compound: Cn1cc[nH]c1=S [Methimazole, methimazole]
effect on serum T3 and T4 levels [3]: significantly (p<0.05) lowered T3 levels on all treatment days

plasma levels of the N-acetyl metabolite [4]: No significant levels
Compound: CC(=O)NCc1c[nH]c(=S)n1[C@H]1CCc2c(F)cc(F)cc2C1 [N-acetyl metabolite of nepicastat]

Compound: CN1CCc2cc(Cl)c(O)cc2[C@@H](c2ccccc2)C1 [SCH-23390, reference compound]
decrease in mean arterial pressure [5]: 5±1 mmHg

Compound: CCOC(=O)[C@H](CCc1ccccc1)N[C@@H](C)C(=O)N1CCC[C@H]1C(=O)O [enalapril, reference compound]
effect on blood pressure, enalapril alone [6]: failed to lower blood pressure | reduction in left ventricular mass, enalapril alone [6]: did not occur
